Reference: article PMC7734590, “Identification of a Selective RelA Inhibitor Based on DSE-FRET Screening Methods” (International Journal of Molecular Sciences, 2020)
Structures can show the parent of a compound that is named as a salt. Where two headings read alike, the source gives them in different places.

Tests used:
p52 = molecular target: T1, p52 (Homo sapiens, UniProt Q00653); experiment: DSE-FRET p52–DNA binding inhibition; type: biochemical; set-up: p52 Retest % Inhibition Run2 / p52 Retest % Inhibition Avg. / Kinetic assay p52 Inhibition % ΔRFU(60 min-0 min) / p52 HTS % Inhibition / p52 Retest % Inhibition Run1: dose or concentration left out as unconfirmed; conditions: for p52 Retest % Inhibition Avg.: Retest average of Run1 and Run2
T1 sequence (Q00653 1-454 limits assumed): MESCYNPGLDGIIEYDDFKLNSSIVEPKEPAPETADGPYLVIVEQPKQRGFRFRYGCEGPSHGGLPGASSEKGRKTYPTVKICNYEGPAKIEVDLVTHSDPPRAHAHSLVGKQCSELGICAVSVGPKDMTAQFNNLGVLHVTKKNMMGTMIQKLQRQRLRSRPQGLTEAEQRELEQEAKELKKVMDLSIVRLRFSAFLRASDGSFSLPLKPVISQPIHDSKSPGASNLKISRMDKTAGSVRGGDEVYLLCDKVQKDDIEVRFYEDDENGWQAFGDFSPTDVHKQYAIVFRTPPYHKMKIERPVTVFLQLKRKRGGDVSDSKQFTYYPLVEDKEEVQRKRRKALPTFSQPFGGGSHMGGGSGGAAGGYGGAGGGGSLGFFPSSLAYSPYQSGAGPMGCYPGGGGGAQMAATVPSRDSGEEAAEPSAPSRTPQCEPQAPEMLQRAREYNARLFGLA
Protocol: Plate-based (384 scale) DNA-binding experiments were carried out with 0.1 µL of 2 mM or 1 mg/mL compound, 2 µL of 80 nM NF-D1 (consisting of NF-01F and NF-14D), 1 µL of 20 ng/µL poly dI-dC, and 6.9 µL of 3.2 pmol protein in binding buffer (10 mM 4-(2-hydroxyethyl)-1-piperazineethanesulfonic acid (HEPES)–NaOH pH 7.9, 50 mM KCl, 0.1 mM ethylenediaminetetraacetic acid (EDTA), 2.5 mM dithiothreitol (DTT), 10% glycerol, and 0.05% Nonidet P40). The plates were incubated for 30 min at room temperature, after which 10 µL of NF-D2 (consisting of NF-02 and NF-13) was added. The plates were centrifuged at 1000 rpm for 30 s, followed by shaking for 30 s using a plate shaker (Biotec). Fluorescence was measured at 528 nm, after excitation at 485 nm, using a multiplate reader (Biotec) over a period of 60 min.

RelA = RelA (Homo sapiens, UniProt Q04206); experiment: DSE-FRET RelA–DNA binding inhibition; type: biochemical; set-up: Kinetic assay RelA Inhibition % ΔRFU(60 min-0 min) / RelA HTS % Inhibition / RelA Retest % Inhibition Run1 / RelA Retest % Inhibition Run2 / RelA Retest % Inhibition Avg. / Kinetic assay RelA % Inhibition ΔRFU(60 min-0 min): dose or concentration left out as unconfirmed
Sequence of RelA (Q04206 19-306 limits assumed): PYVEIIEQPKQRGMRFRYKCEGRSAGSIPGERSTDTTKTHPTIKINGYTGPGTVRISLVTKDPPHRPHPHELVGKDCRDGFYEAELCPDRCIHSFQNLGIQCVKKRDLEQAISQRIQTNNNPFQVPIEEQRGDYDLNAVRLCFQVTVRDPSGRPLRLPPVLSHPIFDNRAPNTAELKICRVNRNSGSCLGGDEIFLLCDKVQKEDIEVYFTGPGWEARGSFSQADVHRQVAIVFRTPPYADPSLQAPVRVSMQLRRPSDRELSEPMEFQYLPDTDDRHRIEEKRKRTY

[1] = HTS, 5 µg/mL, NPDepo hits, read-out: RelA HTS % Inhibition @ 5 µg/mL
[2] = Retest Run1, 5 µg/mL, read-out: RelA Retest % Inhibition @ 5 µg/mL Run1
[3] = Retest Run2, 5 µg/mL, read-out: RelA Retest % Inhibition @ 5 µg/mL Run2
[4] = Retest average of Run1 and Run2, 5 µg/mL, read-out: RelA Retest % Inhibition @ 5 µg/mL Avg.
[5] = kinetic assay, 5 µg/mL, ΔRFU 60 min-0 min, read-out: Kinetic assay @ 5 µg/mL RelA Inhibition % ΔRFU(60 min-0 min)

Work on `Cn1cc(C2=C(c3ccc(Cl)cc3Cl)C(=O)NC2=O)c2ccccc21` [SB 216763] yielded an inhibition at 10 µM (p52; HTS, known drugs, 10 µM, read-out: p52 HTS % Inhibition @ 10 µM) of 18.6%, an inhibition at 10 µM (p52; kinetic assay, 60 min-0 min, 10 µM, read-out: Kinetic assay @ 10 µM p52 % Inhibition ΔRFU(60 min-0 min)) of -10% and an inhibition at 10 µM (p52; retest, Run1, 10 µM, read-out: p52 Retest % Inhibition @ 10 µM Run1) of 64.6%. The inhibition at 10 µM (p52; retest, Run2, 10 µM, read-out: p52 Retest % Inhibition @ 10 µM Run2) was 76.1%, the inhibition at 10 µM (p52; retest, average of Run1 and Run2, 10 µM, read-out: p52 Retest % Inhibition @ 10 µM Avg.) was 70.3% and the inhibition at 10 µM (RelA; HTS, known drugs, 10 µM, read-out: RelA HTS % Inhibition @ 10 µM) was 146%. The inhibition at 10 µM (RelA; kinetic assay, 60 min-0 min, 10 µM, read-out: Kinetic assay @ 10 µM RelA % Inhibition ΔRFU(60 min-0 min)) was -12%, the inhibition at 10 µM (RelA; retest, Run1, 10 µM, read-out: RelA Retest % Inhibition @ 10 µM Run1) was 73.3% and the inhibition at 10 µM (RelA; retest, Run2, 10 µM, read-out: RelA Retest % Inhibition @ 10 µM Run2) was 82.1%. The inhibition at 10 µM (RelA; retest, average of Run1 and Run2, 10 µM, read-out: RelA Retest % Inhibition @ 10 µM Avg.) was 77.7%.
`CCN(CC)CCCC(C)Nc1c2ccc(Cl)cc2nc2ccc(OC)cc12` (stereo not shown) [Quinacrine dihydrochloride dihydrate] was tested, and the “Kinetic assay p52 % Inhibition ΔRFU(60 min-0 min)” value (p52; kinetic assay, 60 min-0 min) was -17% and the “Kinetic assay RelA % Inhibition ΔRFU(60 min-0 min)” value (RelA; kinetic assay, 60 min-0 min) was -17%.
`COc1cc(/C=C/C(=O)CC(=O)/C=C/c2ccc(O)c(OC)c2)ccc1O` [Curcumin] was tested, and the inhibition at 5 µg/mL (RelA; [1]) was 116%, the inhibition at 5 µg/mL (RelA; [2]) was 135% and the inhibition at 5 µg/mL (RelA; [3]) was 149%. It also gave an inhibition at 5 µg/mL (RelA; [4]) of 142% and an inhibition at 5 µg/mL (RelA; [5]) of -84%.
For `O=c1c(=Cc2ccc(-c3ccccc3F)o2)sc2nc3sc4c(c3c(=O)n12)CCCC4`, the “p52 HTS % Inhibition” value (p52; HTS, NPDepo hits) was 20.7%, the “p52 Retest % Inhibition Run1” value (p52) was 25.8% and the “p52 Retest % Inhibition Run2” value (p52) was 30.7%. The “p52 Retest % Inhibition Avg.” value (p52) was 28.2%, the “Kinetic assay p52 Inhibition % ΔRFU(60 min-0 min)” value (p52; kinetic assay) was -0.236% and the “RelA HTS % Inhibition” value (RelA; HTS, NPDepo hits) was 33.6%. The “RelA Retest % Inhibition Run1” value (RelA; Retest Run1) was 26.4%, the “RelA Retest % Inhibition Run2” value (RelA; Retest Run2) was 32.2% and the “RelA Retest % Inhibition Avg.” value (RelA; Retest average of Run1 and Run2) was 29.3%. For the same compound, the “Kinetic assay RelA Inhibition % ΔRFU(60 min-0 min)” value (RelA; kinetic assay, ΔRFU 60 min-0 min) was 0.774%.
In the case of `COc1cccc2c1C(=O)c1c(O)c3c(c(O)c1C2=O)C[C@@](O)(C(C)=O)C[C@@H]3O[C@H]1C[C@H](N)[C@H](O)[C@H](C)O1` [Daunorubicin(Daunomycin)], the “p52 HTS % Inhibition” value (p52; HTS, NPDepo hits) is reported as 78.5%, the “p52 Retest % Inhibition Run1” value (p52) is reported as 79.2% and the “p52 Retest % Inhibition Run2” value (p52) is reported as 84.3%. The “p52 Retest % Inhibition Avg.” value (p52) was 81.7% and the “Kinetic assay p52 Inhibition % ΔRFU(60 min-0 min)” value (p52; kinetic assay) was -7%.
`COc1cccc2c1C(=O)c1c(O)c3c(c(O)c1C2=O)C[C@@](O)(C(=O)CO)C[C@@H]3O[C@H]1C[C@H](N)[C@H](O)[C@H](C)O1` [Doxorubicin] showed an inhibition at 5 µg/mL (RelA; [1]) of 70.5%, an inhibition at 5 µg/mL (RelA; [2]) of 69.2% and an inhibition at 5 µg/mL (RelA; [3]) of 78.3%. For the same compound, the inhibition at 5 µg/mL (RelA; [4]) was 73.8% and the inhibition at 5 µg/mL (RelA; [5]) was -12%.
In the case of `COc1cccc2c1C(=O)c1c(O)c3c(c(O)c1C2=O)C[C@@](O)(C(C)=O)C[C@@H]3O[C@H]1C[C@H](N)[C@H](O)[C@H](C)O1` [DAUNORUBICIN], the “Kinetic assay p52 % Inhibition ΔRFU(60 min-0 min)” value (p52; kinetic assay, 60 min-0 min) is reported as -16%.
With `Cc1ccc(C(=O)Nc2ccc(S(=O)(=O)O)c3cc(S(=O)(=O)O)cc(S(=O)(=O)O)c23)cc1NC(=O)c1cccc(NC(=O)Nc2cccc(C(=O)Nc3cc(C(=O)Nc4ccc(S(=O)(=O)O)c5cc(S(=O)(=O)O)cc(S(=O)(=O)O)c45)ccc3C)c2)c1` [Suramin, reference compound] the “p52–DNA binding inhibition at 50 µM” value (p52; 96-well plates, 50 µM) was “inhibited both RelA–DNA and p52–DNA binding” and the “suppression of p52–DNA binding” value (p52; HTS, 10 µM or 5 µg/mL) was “less than 10%”.
With `Cc1ccc(C(=O)Nc2ccc(S(=O)(=O)[O-])c3cc(S(=O)(=O)[O-])cc(S(=O)(=O)[O-])c23)cc1NC(=O)c1cccc(NC(=O)Nc2cccc(C(=O)Nc3cc(C(=O)Nc4ccc(S(=O)(=O)[O-])c5cc(S(=O)(=O)[O-])cc(S(=O)(=O)[O-])c45)ccc3C)c2)c1.[Na+].[Na+].[Na+].[Na+].[Na+].[Na+]` [Suramin hexasodium salt] the “Kinetic assay @ 50 µM p52 Inhibition % ΔRFU(120 min-0 min)” value (p52; 96 well plate, 50 µM, 120 min-0 min) was 73%, the “p52 HTS % Inhibition” value (p52; HTS, known drugs) was 4.7% and the “p52 Retest % Inhibition Run1” value (p52) was 4.9%. For the same compound, the “p52 Retest % Inhibition Run2” value (p52) was 5.3%, the “p52 Retest % Inhibition Avg.” value (p52) was 5.1% and the “Kinetic assay p52 % Inhibition ΔRFU(60 min-0 min)” value (p52; kinetic assay, 60 min-0 min) was 7%.
